Test results taken from patent US11505523B2, “HDAC8 inhibitors for treating cancer” (City of Hope, priority 2013, dated 2022).
Several values for one entry are separate records, joined by “and”; a condition that tells them apart may be missing. Identical values can stand only once.

Legend:
HeLa nuclear HDACs = experiment: Inhibition of HeLa nuclear HDACs (HeLa nuclear extract, mainly HDACs1-3); format: biochemical; conditions: read-out: HeLa HDAC IC50
HDAC8 = HDAC8 (Homo sapiens (Human), UniProt Q9BY41); experiment: Inhibition of HDAC8; format: biochemical; conditions: for IC50 PCI34051/IC50 compound: inhibition of HDAC8, relative potency (Tables 1-3); for A (relative potency to PCI34051): inhibition of HDAC8, footnote: (Tables 11-13); for IC50: mean SD of three determinations; for HDAC8 inhibitory activity compared with PCI34051: result in words
HDAC8, sequence (Q9BY41 whole entry): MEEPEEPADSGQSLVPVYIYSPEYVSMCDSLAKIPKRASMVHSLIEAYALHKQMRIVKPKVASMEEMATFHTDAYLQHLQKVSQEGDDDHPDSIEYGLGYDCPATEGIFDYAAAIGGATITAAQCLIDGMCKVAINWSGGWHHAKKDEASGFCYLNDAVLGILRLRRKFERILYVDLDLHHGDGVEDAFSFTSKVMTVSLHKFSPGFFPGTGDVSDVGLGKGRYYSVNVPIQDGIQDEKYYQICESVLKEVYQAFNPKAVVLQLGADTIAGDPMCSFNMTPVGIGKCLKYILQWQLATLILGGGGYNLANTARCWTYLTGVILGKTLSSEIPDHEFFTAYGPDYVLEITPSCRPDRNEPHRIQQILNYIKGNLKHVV

MV4-11 cells [1] = experiment: Proliferation of MV4-11 cells, luminescent cell viability assay; format: cell-based, human; conditions: Homo sapiens, read-out: MV4-11 Proliferation IC50
MV4-11 cells [2] = experiment: Survival/apoptosis of MV4-11 AML cells by Annexin V labeling; format: cell-based, human; conditions: Homo sapiens, read-out: MV4-11 Apoptosis IC50
OCI-AML3 cells = experiment: Survival/apoptosis of OCI-AML3 AML cells by Annexin V labeling; format: cell-based, human; conditions: Homo sapiens, OCI-AML-3, 48 h, read-out: OCI-AML3 Apoptosis IC50
MOLM13 cells [3] = experiment: Survival/apoptosis of MOLM13 AML cells by Annexin V labeling; format: cell-based, human; conditions: Homo sapiens, read-out: MOLM13 Apoptosis IC50
MOLM13 cells [4] = experiment: Proliferation of MOLM13 cells, luminescent cell viability assay; format: cell-based, human; conditions: Homo sapiens, read-out: MOLM13 Proliferation IC50
CL1-5 cells = experiment: Cytotoxicity / anti-proliferative activity in CL1-5 lung cancer cells; conditions: read-out: Cytotoxicity IC50 Cl1-5; mean SD of three determinations
Cl1-1 cells = experiment: Cytotoxicity / anti-proliferative activity in CL1-1 lung cancer cells; conditions: read-out: Cytotoxicity IC50 Cl1-1; mean SD of three determinations
H1299 cells = experiment: Cytotoxicity / anti-proliferative activity in H1299 lung cancer cells; conditions: read-out: Cytotoxicity IC50 H1299; mean SD of three determinations

Row | Compound | IC50 (HeLa nuclear HDACs) [µM] | IC50 PCI34051/IC50 compound (HDAC8) | A (relative potency to PCI34051) (HDAC8) | IC50 (HDAC8) | further results
1 | COc1ccc(/C=C/C(=O)NO)c(-c2cc(OC)c(OC)c(OC)c2)c1 [Compound 5a] | > 10 | 0.29 | 0.29 | – | –
2 | COc1ccc(/C=C/C(=O)NO)c(-c2cccs2)c1 [Compound 5b] | > 10 | 1.43 | 1.43 | – | IC50 (MV4-11 cells [1]; MV4-11, 48 h): 0.0825 µM; IC50 (MV4-11 cells [2]; MV4-11, 48 h): 0.524 µM; IC50 (OCI-AML3 cells): 2.35 µM; IC50 (MOLM13 cells [3]; MOLM-13, 48 h): 0.345 µM; IC50 (MOLM13 cells [4]; MOLM-13, 48 h): 0.0533 µM
3 | COc1ccc(/C=C/C(=O)NO)c(-c2cccc(Cl)c2)c1 [Compound 5c] | > 10 | 1.17 | 1.17 | – | –
4 | COc1ccc(/C=C/C(=O)NO)c(-c2ccc(F)cc2)c1 [Compound 5d] | > 10 | 1.90 | 1.90 | – | –
5 | COc1ccc(/C=C/C(=O)NO)c(-c2cccc3[nH]ccc23)c1 [Compound 5f] | > 10 | 0.64 | 0.64 | – | –
6 | COc1ccc(/C=C/C(=O)NO)c(-c2cncc3ccccc23)c1 [Compound 5g] | 0.7984 ± 0.0003 | 0.28 | 0.28 | – | –
7 | COc1ccc(/C=C/C(=O)NO)c(-c2cnc3ccccc3c2)c1 [Compound 5h] | 0.836 ± 0.0091 | 0.63 | 0.63 | – | IC50 (MV4-11 cells [1]; MV4-11, 48-hr, luminescent cell viability assay): 16.6 µM; IC50 (MV4-11 cells [2]; MV4-11, 48-hr, Annexin V labeling): ~22700 µM; IC50 (MOLM13 cells [3]; MOLM-13, 48-hr, Annexin V labeling): 90.9 µM; IC50 (MOLM13 cells [4]; MOLM-13, 48-hr, luminescent cell viability assay): 7.17 µM
8 | COc1ccc(/C=C/C(=O)NO)c(Nc2ccccc2)c1 [Compound 6a] | > 10 | 0.40 | 0.40 | – | –
9 | COc1ccc(/C=C/C(=O)NO)c(Nc2ccccc2OC)c1 [Compound 6b] | > 10 | 0.17 | 0.17 | – | –
10 | COc1cccc(Nc2cc(OC)ccc2/C=C/C(=O)NO)c1 [Compound 6c] | > 10 | 0.44 | 0.44 | – | –
11 | COc1ccc(Nc2cc(OC)ccc2/C=C/C(=O)NO)cc1 [Compound 6d] | > 10 | 0.30 | 0.30 | – | –
12 | COc1ccc(/C=C/C(=O)NO)c(Nc2ccc(OC)c(OC)c2)c1 [Compound 6e] | > 10 | 0.44 | 0.44 | – | –
13 | COc1ccc(/C=C/C(=O)NO)c(Nc2cc(OC)c(OC)c(OC)c2)c1 [Compound 6f] | > 10 | 0.24 | 0.24 | – | –
14 | COc1ccc(/C=C/C(=O)NO)c(OCc2ccccc2)c1 [Compound 13a, (E)-N-Hydroxy-2-benzyloxy-4-methoxycinnamide] | > 10 | – | – | 0.207 ± 0.0134 µM | –
15 | COc1ccc(/C=C/C(=O)NO)c(OCc2ccc(Br)cc2)c1 [Compound 13c, (E)-N-Hydroxy-2-(4-bromobenzyloxy)-4-methoxycinnamide] | > 10 | – | – | – | –
16 | COc1ccc(COc2cc(OC)ccc2/C=C/C(=O)NO)cc1 [Compound 13d, (E)-N-Hydroxy-2-(4-methoxybenzyloxy)-4-methoxycinnamide] | > 10 | – | – | 0.397 ± 0.0127 µM | –
17 | COc1cc(Nc2cc(F)ccc2/C=C/C(=O)NO)cc(OC)c1OC [Compound 15a] | > 10 | 0.38 | 0.38 | – | –

Row | Compound | IC50 (HeLa nuclear HDACs) [µM] | IC50 PCI34051/IC50 compound (HDAC8) | A (relative potency to PCI34051) (HDAC8) | IC50 (HDAC8) | further results
18 | COc1cc(Nc2cc(C(F)(F)F)ccc2/C=C/C(=O)NO)cc(OC)c1OC [Compound 15b] | > 10 | 0.55 | 0.55 | – | –
19 | COc1cc(Nc2c(/C=C/C(=O)NO)ccc(OC)c2OC)cc(OC)c1OC [Compound 15d] | > 10 | 0.44 | 0.44 | – | –
20 | COc1ccc(OCCOc2cc(OC)ccc2/C=C/C(=O)NO)cc1 [Compound 18a, (E)-N-Hydroxy-2-(2-(4-methoxyphenoxyoxy)ethoxy)-4-methoxycinnamide] | > 10 | – | – | 0.122 ± 0.0035 µM | –
21 | COc1ccc(OC(C)COc2cc(OC)ccc2/C=C/C(=O)NO)cc1 (centres unmarked) [Compound 18b, (E)-N-Hydroxy-2-(2-(4-methoxyphenoxyoxy)propoxy)-4-methoxycinnamide] | > 10 | – | – | 0.191 ± 0.0022 µM | –
22 | CCCC(COc1cc(OC)ccc1/C=C/C(=O)NO)Oc1ccc(OC)cc1 (centres unmarked) [Compound 18d, (E)-N-Hydroxy-2-(2-(4-methoxyphenoxyoxy)pentyloxy)-4-methoxycinnamide] | > 10 | – | – | 0.2 ± 0.0065 µM | –
23 | COc1cc(Nc2ncccc2/C=C/C(=O)NO)cc(OC)c1OC [Compound 21] | > 10 | 0.68 | 0.68 | – | –
24 | COc1ccc(/C=C/C(=O)NO)c(-c2ccccc2)c1 [Compound 22a, (E)-N-Hydroxy-4-methoxy-2-phenylcinnamide] | > 10 | – | – | 0.072 µM and 0.0724 µM | –
25 | COc1ccc(/C=C/C(=O)NO)c(-c2cccc3ccccc23)c1 [Compound 22c, (E)-N-Hydroxy-4-methoxy-2-(naphthalen-1-yl)cinnamide] | > 10 | – | – | 0.078 ± 0.0043 µM | –
26 | COc1ccc(/C=C/C(=O)NO)c(-c2ccc(Oc3ccccc3)cc2)c1 [Compound 22e, (E)-N-Hydroxy-4-methoxy-2-(4-phenoxyphenyl)cinnamide] | > 10 | – | – | 0.174 ± 0.0059 µM | fold less potent than 22a (HDAC8) (HDAC8): three
27 | COc1ccc(/C=C/C(=O)NO)c(-c2ccc(C(=O)c3ccccc3)cc2)c1 [Compound 22f, (E)-N-Hydroxy-4-methoxy-2-(4-benzoylphenyl)cinnamide] | > 10 | – | – | 0.0418 ± 0.0033 µM | IC50 (CL1-5 cells): > 0.01 µM; IC50 (Cl1-1 cells): > 0.01 µM; IC50 (H1299 cells): 0.0084 ± 0.0002 µM; HDAC8 inhibitory activity compared with PCI34051 (HDAC8): superior to PCI34051
28 | COc1ccc(/C=C/C(=O)NO)c(-c2cccc3c2oc2ccccc23)c1 [Compound 22g, (E)-N-Hydroxy-4-methoxy-2-(dibenzofuran-4-yl)cinnamide] | > 10 | – | – | 0.0477 ± 0.0007 µM | IC50 (CL1-5 cells): 0.0087 ± 0.0001 µM; IC50 (Cl1-1 cells): 0.0085 ± 0.0012 µM; IC50 (H1299 cells): 0.0066 ± 0.0007 µM; HDAC8 inhibitory activity compared with PCI34051 (HDAC8): superior to PCI34051
29 | COc1ccc(/C=C/C(=O)NO)c(Oc2cc(OC)c(OC)c(OC)c2)c1 [Compound 25] | > 10 | 0.49 | 0.49 | – | –
30 | CCCOc1ccc(/C=C/C(=O)NO)c(-c2ccccc2)c1 [Compound 27a, (E)-N-Hydroxy-4-propoxy-2-phenylcinnamide] | > 10 | – | – | 0.133 ± 0.0126 µM | –
31 | CCCCOc1ccc(/C=C/C(=O)NO)c(-c2ccccc2)c1 [Compound 27b, (E)-N-Hydroxy-4-butoxy-2-phenylcinnamide] | > 10 | – | – | 0.289 ± 0.0301 µM | –
32 | CCCCCOc1ccc(/C=C/C(=O)NO)c(-c2ccccc2)c1 [Compound 27c, (E)-N-Hydroxy-4-pentoxy-2-phenylcinnamide] | > 10 | – | – | 0.186 ± 0.0598 µM | –
33 | O=C(/C=C/c1ccc(-c2ccccc2)cc1-c1ccccc1)NO [Compound 27d, (E)-N-Hydroxy-2,4-diphenylcinnamide] | > 10 | – | – | 0.1749 ± 0.0002 µM | –
